Measurements as given in patent publication US8143421B2, “Broadspectrum substituted benzimidazole sulfonamide HIV protease inhibitors” (priority 2002, dated 2012).
Read-outs that look alike come from different tables or passages of the source.

Experiments:
[1] = system: mutant B; assay: Antiviral spectrum, fold resistance towards mutant B; assay type: cell-based; conditions: FR=IC50(mutant strain)/IC50(HIV-1 strain LAI)
Method: (§1) Because of the increasing emergence of drug resistant HIV strains, the present compounds were tested for their potency against clinically isolated HIV strains harboring several mutations. These mutations are associated with resistance to protease inhibitors and result in viruses that show various degrees of phenotypic cross-resistance to the currently commercially available drugs such as for instance saquinavir, ritonavir, nelfinavir, indinavir and amprenavir. The viral strains R13025, R13027, R13028, R13029, R13034, R13080, T13127 and R13363 contained mutations as indicated below in Table 3.

[2] = system: mutant A; assay type: cell-based; conditions: FR=IC50(mutant strain)/IC50(HIV-1 strain LAI)
Method: (§2) HIV- or mock-infected MT4 cells were incubated for five days in the presence of various concentrations of the inhibitor. […] Cell viability is measured by measuring the concentration of MTT, a yellow, water soluble tetrazolium dye that is converted to a purple, water insoluble formazan in the mitochondria of living cells only. Upon solubilization of the resulting formazan crystals with isopropanol, the absorbance of the solution is monitored at 540 nm. The values correlate directly to the number of living cells remaining in the culture at the completion of the five day incubation. The inhibitory activity of the compound was monitored on the virus-infected cells and was expressed as IC50 and IC90. These values represent the amount of the compound required to protect 50% and 90%, respectively, of the cells from the cytopathogenic effect of the virus. […] The selectivity index (SI) (ratio CC50/IC50) is an indication of the selectivity of the anti-HIV activity of the inhibitor. Wherever results are reported as e.g. pIC50 or pCC50 values, the result is expressed as the negative logarithm of the result expressed as IC50 or CC50 respectively.
(§3) Because of the increasing emergence of drug resistant HIV strains, the present compounds were tested for their potency against clinically isolated HIV strains harboring several mutations. […] The viral strains R13025, R13027, R13028, R13029, R13034, R13080, T13127 and R13363 contained mutations as indicated below in Table 3.
(§4) As a measure of the broad spectrum activity of the present compounds, the fold resistance (FR), defined as FR=IC50(mutant strain)/IC50(HIV-1 strain LAI), was determined.

[3] = system: mutant E; assay type: cell-based; conditions: FR=IC50(mutant strain)/IC50(HIV-1 strain LAI)
Method: as §2, §3, §4

[4] = in vitro; conditions: human
Method: as §2, §4

[5] = system: mutant C; assay: Antiviral spectrum, fold resistance towards mutant C; assay type: cell-based; conditions: FR=IC50(mutant strain)/IC50(HIV-1 strain LAI)
Method: as §1

[6] = system: mutant F; assay: Antiviral spectrum, fold resistance towards mutant F; assay type: cell-based; conditions: FR=IC50(mutant strain)/IC50(HIV-1 strain LAI)
Method: as §1

[7] = system: mutant D; assay: Antiviral spectrum, fold resistance towards mutant D; assay type: cell-based; conditions: FR=IC50(mutant strain)/IC50(HIV-1 strain LAI)
Method: as §1

[8] = system: HIV-1 strain LAI; assay: Cellular anti-HIV assay, MT4 cells, MTT readout, wild type HIV-1 strain LAI; assay type: cell-based
Method: The compounds of the present invention were examined for anti-viral activity in a cellular assay. […] The cellular assay was performed according to the following procedure.

[9] = system: mutant H; assay: Antiviral spectrum, fold resistance towards mutant H; assay type: cell-based; conditions: FR=IC50(mutant strain)/IC50(HIV-1 strain LAI)
Method: as §1

[10] = system: mock-infected MT4 cells; assay: Toxicity on mock-infected MT4 cells (CC50)
Method: as §2, §4

[11] = system: mutant G; assay: Antiviral spectrum, fold resistance towards mutant G; assay type: cell-based; conditions: FR=IC50(mutant strain)/IC50(HIV-1 strain LAI)
Method: as §1

[12] = Oral availability in the rat, serum concentration; assay type: in vivo
Method: The compounds are formulated as a 20 mg/ml solution or suspension in DMSO, PEG400 or cyclodextin 40% in water. For most experiments in the rat (male and female rats), three dosing groups are formed: 1/single intraperitoneal (IP) dose at 20 mg/kg using DMSO formulation; 2/single oral dose at 20 mg/kg using […] oral dose at 20 mg/kg using PEG400 formulation. Blood is sampled at regular time intervals after dosing and drug concentrations in the serum are determined using a LC-MS bioanalytical method. Serum concentrations are expressed in […]. Serum concentration at 30 minutes (30′) and at 3 hours (180′) can be determined as these values reflect the extent of absorption (30′) and the speed of elimination (180′). The rat serum concentration at 30 min and 180 min following IP administration of 20 mg/kg of compound 18 are 2012 ng/ml and 190 ng/ml respectively. The rat serum concentration at 30 min and 180 min following oral administration of 20 mg/kg as a DMSO formulation of compound 18 are 148 ng/ml and 44 ng/ml respectively; whereas in PEG400 said concentrations are respectively 475 ng/ml and 63 ng/ml.

[13] = Human immunodeficiency virus 1, 120 h, Table 1, MT4 cells, five days, HIV-1 strain LAI, read-out: pIC50 (LAI) (converted)
[14] = Human immunodeficiency virus 1, MT4, Table 4, wild type HIV-LAI strain, read-out: WT (pIC50 against wild type HIV-LAI strain) (converted)
[15] = pCC50 value as determined with mock transfected cells
[16] = Table 1, MT4 cells, five days, HIV-1 strain LAI
[17] = Table 4, wild type HIV-LAI strain

Row | Compound | FR towards mutant B [1] | FR value towards mutant A [2] | FR towards mutant E [3] | FR towards mutant C [5] | FR towards mutant F [6] | FR towards mutant D [7] | Tox (pCC50) [10, 15] | FR towards mutant G [11] | pIC50 (LAI) [8, 16] | WT (pIC50 against wild type HIV-LAI strain) [8, 17] | Tox (pCC50) [10] | further results
1 | Cc1nc2ccc(S(=O)(=O)N(CC(C)C)C[C@@H](O)[C@H](Cc3ccccc3)NC(=O)O[C@H]3CO[C@H]4OCC[C@H]43)cc2n1Cc1ccccc1 [Compound 2, [(1S,2R)-2-hydroxy-3-[[[[2-methyl-1-(phenylmethyl)]benzimidazol-6-yl]sulfonyl]-(2-methylpropyl)amino]-1-(phenylmethyl)propyl]carbamic acid, [(3R,3aS,6aR)-hexahydrofuro[2,3-b]furan-3-yl]ester] | 6.3 | 32 | 2.9 | 1.9 | 162 | 6.3 | – | – | – | – | – | CC50 at 5 days [4]: 63100 nM; IC50 [8, 13]: 1 nM; IC50 [8, 14]: 1 nM; FR towards mutant H [9]: 89
2 | CC(C)CN(CC(O)C(Cc1ccccc1)NC(=O)OC1COC2OCCC12)S(=O)(=O)c1ccc2ncn(CCc3ccccc3)c2c1 (centres unmarked) [Compound 5] | 1.9 | – | 3.2 | 0.9 | 78 | 1.9 | 4.1 | 110 | 8.7 | 8.7 | – | FR towards mutant H [9]: 49
3 | COC(=O)Nc1nc2ccc(S(=O)(=O)N(CC(C)C)C[C@@H](O)[C@H](Cc3ccccc3)NC(=O)COc3c(C)cccc3C)cc2[nH]1 [Compound 8, [(1S,2R)-2-hydroxy-3-[[[2-[(methoxycarbonyl)amino]-1H-benzimidazol-5-yl]sulfonyl](2-methylpropyl)amino]-1-(phenylmethyl)propyl]-(2,6-dimethylphenoxy)acetamide] | 2.0 | 2.1 | 2.3 | 1.4 | 16.2 | 1.9 | – | 89 | – | – | – | CC50 at 5 days [4]: > 100000 nM; IC50 [8, 13]: 3.16 nM; IC50 [8, 14]: 3.16 nM
4 | CC(=O)Nc1nc2ccc(S(=O)(=O)N(CC(C)C)C[C@@H](O)[C@H](Cc3ccccc3)NC(=O)COc3c(C)cccc3C)cc2[nH]1 [Compound 9, [(1S,2R)-3-[[[2-(acetylamino)benzimidazol-5-yl]sulfonyl](2-methyl-propyl)amino]-2-hydroxy-1-(phenylmethyl)propyl]-(2,6-dimethylphenoxy)acetamide] | 1.3 | 4.3 | 2.8 | 4.4 | 14 | 2.4 | – | 107 | – | – | – | CC50 at 5 days [4]: > 100000 nM; IC50 [8, 13]: 3.98 nM; IC50 [8, 14]: 3.98 nM
5 | CC(C)CN(CC(O)C(Cc1ccccc1)NC(=O)OC1COC2OCCC12)S(=O)(=O)c1ccc2ncn(C)c2c1 (centres unmarked) [Compound 18] | – | – | – | – | – | – | – | – | – | – | – | rat serum concentration at 30 min ([12]; IP administration of 20 mg/kg, 30 min): 2012 ng/mL; rat serum concentration at 180 min ([12]; IP administration of 20 mg/kg, 180 min): 190 ng/mL; rat serum concentration at 30 min ([12]; oral administration of 20 mg/kg as a DMSO formulation, 30 min): 148 ng/mL; rat serum concentration at 180 min ([12]; oral administration of 20 mg/kg as a DMSO formulation, 180 min): 44 ng/mL; rat serum concentration at 30 min ([12]; oral administration of 20 mg/kg in PEG400, 30 min): 475 ng/mL; rat serum concentration at 180 min ([12]; oral administration of 20 mg/kg in PEG400, 180 min): 63 ng/mL
6 | COC(=O)Nc1nc2ccc(S(=O)(=O)N(CC(C)C)C[C@@H](O)[C@H](Cc3ccccc3)NC(=O)c3ccc(N)cc3C)cc2[nH]1 [Compound 22] | 0.78 | 0.74 | 0.72 | 1.1 | 0.69 | 0.71 | 4.1 | 4.3 | 7.4 | 7.4 | – | –
7 | CC(=O)Nc1nc2ccc(S(=O)(=O)N(CC(C)C)C[C@@H](O)[C@H](Cc3ccccc3)NC(=O)OC3COC4OCCC34)cc2[nH]1 (some centres unmarked) [Compound 38] | 0.32 | 0.12 | 0.17 | 0.39 | 0.21 | 0.19 | – | 0.60 | 6.7 | 6.7 | <4 | –
8 | CC(C)CN(CC(O)C(Cc1ccccc1)NC(=O)OC1COC2OCCC12)S(=O)(=O)c1ccc2nc(NC(=O)OCCN(C)C)[nH]c2c1 (centres unmarked) [Compound 48] | 1.9 | 0.37 | 0.32 | 0.38 | 0.35 | 0.35 | <4 | 0.85 | 6.4 | 6.4 | – | –
9 | CC(C)CN(CC(O)C(Cc1ccccc1)NC(=O)OC1COC2OCCC12)S(=O)(=O)c1ccc2nc(CO)[nH]c2c1 (centres unmarked) [Compound 56] | 0.66 | 0.28 | 0.18 | 0.43 | 0.34 | 0.18 | – | 0.83 | 5.7 | 5.7 | <4 | –
10 | CC(C)CN(C[C@@H](O)[C@H](Cc1ccccc1)NC(=O)OCc1cncs1)S(=O)(=O)c1ccc2nc(N)[nH]c2c1 [Compound 57] | 0.30 | 0.37 | 0.32 | 0.31 | 0.30 | 0.34 | – | 2.0 | 5.7 | 5.7 | <4 | –
11 | CC(C)CN(C[C@@H](O)[C@H](Cc1ccccc1)NC(=O)OC1COC2OCCC12)S(=O)(=O)c1ccc2nc(NC(=O)NCCN(C)C)[nH]c2c1 (some centres unmarked) [Compound 58] | 1.0 | 1.0 | 0.37 | 1.0 | 1.1 | 0.32 | – | 1.1 | 5.6 | 5.6 | <4 | –
12 | [(1S,2R)-2-hydroxy-3-[[(2-methylbenzimidazol-5-yl)sulfonyl](2-methylpropyl)amino]-1-(phenylmethyl)propyl]-carbamic acid, [(3R,3aS,6aR)-hexahydrofuro[2,3-b]furan-3-yl]ester [Compound 24] | 0.85 | 2.6 | 0.83 | 1.1 | 4.7 | 0.89 | <4 | 35 | 7.3 | 7.3 | – | –
